Columns and labels:
[1] = system: Alternaia brassicicola; experiment: Test Example C: Alternaria sooty spot on cabbage; details: Brassica oleracea, read-out: control value
Method: (§1) Disease development in Test Examples described below was evaluated in increments of 0.05 by setting 0 as no incidence of disease and 3 as disease development in a plant of untreated group. Further, control values were calculated using the following equation based on disease development.
(§2) <Control Value> Control value=100{1−(n/3)}
(§3) n=Disease development of each treated group
Seeds of a test plant (cabbage variety: Shikidori) were planted and cultivated until the cotyledons extended. In the test, the inventive compounds were dissolved into a dimethyl sulfoxide-methanol mixture solution (volume ratio: 9/1), and the resultant solutions were diluted with well water to a concentration of 250 ppm. The thus-obtained dilutions were sprayed to the test plant (2.5 ml/pot). After the dilutions dried, a conidial suspension (4-8×10^5 conidia/ml) of Alternaia brassicicola was inoculated to the plant by spraying. After the inoculation, the plant was kept in a mist chamber at room temperature of 20 to 23° C. for about 48 hours to promote the onset of disease. The disease development was investigated 2 to 3 days after the inoculation, and the effectiveness of the dilutions was evaluated.

[2] = system: Blumeria graminis f. sp. hordei; experiment: Test Example D: Powdery mildew on barley; details: in Hordeum vulgare, read-out: control value
Method: as §1, §2, §3
Seeds of a test plant (barley variety: Akashinriki) were planted and cultivated until the first leaves appeared. In the test, the inventive compounds were dissolved into a dimethyl sulfoxide-methanol mixture solution (volume ratio: 9/1), and the resultant solutions were diluted with well water to a concentration of 250 ppm. The thus-obtained dilutions were sprayed to the test plant (2.5 ml/pot). After the dilutions dried, conidia of Blumeria graminis f. sp. hordei were inoculated to the plant by shaking off. The disease development was investigated 6 to 10 days after the inoculation, and the effectiveness of the dilutions was evaluated.

[3] = system: Magnaporthe grisea; experiment: whole plant or invertebrate; format: in vivo; details: Pyricularia oryzae, in Oryza sativa, read-out: control value
[4] = system: Colletotrichum orbiculare; experiment: Test Example H: Anthracnose on cucumber; details: in Cucumis sativus, read-out: control value
Method: as §1, §2, §3
Seeds of a test plant (cucumber variety: Sagami Hanjiro) were planted and cultivated until the first leaf appeared. In the test, the inventive compounds were dissolved into a dimethyl sulfoxide-methanol mixture solution (volume ratio: 9/1), and the resultant solutions were diluted with well water to a concentration of 250 ppm. The thus-obtained dilutions were sprayed to the test plant (2.5 ml/pot). After the dilutions dried, a conidial suspension (2-4×10^5 conidia/ml) of Colletotrichum orbiculare was inoculated to the plant by spraying. After the inoculation, the plant was kept in a mist chamber at room temperature of 20 to 23° C. for about 24 hours to promote the onset of disease. The disease development was investigated 6 to 10 days after the inoculation, and the effectiveness of the dilutions was evaluated.

[5] = system: Puccinia recondita; experiment: Test Example E: Brown rust on wheat; format: in vivo; details: 250 ppm sprayed (2.5 ml/pot) on wheat (Norin 61), disease development 7 to 10 days after inoculation
[6] = system: Botrytis cinerea; experiment: Test Example B: Gray mold on tomato; details: in Solanum lycopersicum, read-out: control value
Method: as §1, §2, §3
Seeds of a test plant (tomato variety: Oogata Fukuju) were planted and cultivated until three to five first leaves (true leaves) appeared. In the test, the inventive compounds were dissolved into a dimethyl sulfoxide-methanol mixture solution (volume ratio: 9/1), and the resultant solutions were diluted with well water to a concentration of 250 ppm. The thus-obtained dilutions were sprayed to the test plant (2.5 ml/pot). After the dilutions dried, a conidial suspension (4-8×10^5 conidia/ml) of Botrytis cinerea was inoculated to the plant by spraying. After the inoculation, the plant was kept in a mist chamber at room temperature of 20 to 23° C. for about 48 hours to promote the onset of disease. The disease development was investigated 2 to 3 days after the inoculation, and the effectiveness of the dilutions was evaluated.

Measured: pest or weed control at 250 ppm

O=c1c(Cl)cc(-c2cc(F)cc(F)c2Cl)c(-c2ccc(F)cc2)n1CC(F)F [compound 31, 3-chloro-5-(2-chloro-3,5-difluorophenyl)-1-(2,2-difluoroethyl)-6-(4-fluorophenyl)pyridin-2(1H)-one]
> 50%: all assays above

CCn1c(-c2ccc(F)cc2)c(-c2cc(O)ccc2Cl)cc(Cl)c1=O [compound 340, 3-chloro-5-(2-chloro-5-hydroxyphenyl)-1-ethyl-6-(4-fluorophenyl)pyridin-2(1H)-one]
> 50%: all assays above

CCn1c(-c2ccc(F)cc2)c(-c2cc(OCOC)ccc2Cl)cc(Cl)c1=O [compound 248, 3-chloro-5-(2-chloro-5-(methoxymethoxy)phenyl)-1-ethyl-6-(4-fluorophenyl)pyridin-2(1H)-one]
> 50%: all assays above

CCn1c(-c2ccc(F)cc2)c(-c2cccnc2Cl)cc(Cl)c1=O [compound 291, 2′,5-dichloro-1-ethyl-2-(4-fluorophenyl)-[3,3′-bipyridin]-6(1H)-one]
> 50%: all assays above

CCn1c(-c2ccc(F)cc2)c(-c2cccnc2Cl)ccc1=O [compound 288, 2′-chloro-1-ethyl-2-(4-fluorophenyl)-[3,3′-bipyridin]-6(1H)-one]
> 50%: all assays above

CCn1c(-c2ccc(F)cc2)c(-c2cc(F)cc(F)c2Cl)ccc1=O [compound 12, 5-(2-chloro-3,5-difluorophenyl)-1-ethyl-6-(4-fluorophenyl)pyridin-2(1H)-one]
> 50%: all assays above

O=C1CCC(c2cc(F)cc(F)c2Cl)=C(c2ccc(F)cc2)N1CC(F)F [compound 29, 5-(2-chloro-3,5-difluorophenyl)-1-(2,2-difluoroethyl)-6-(4-fluorophenyl)-3,4-dihydropy ridin-2(1H)-one]
> 50%: [2] | [3] | [4] | [5]

CCn1c(-c2ccc(F)cc2)c(-c2cc(F)cc(F)c2Cl)cc(C)c1=O [compound 27, 5-(2-Chloro-3,5-difluorophenyl)-1-ethyl-6-(4-fluorophenyl)-3-methylpyridin-2(1H)-one]
> 50%: all assays above

CCn1c(-c2ccc(F)cc2)c(-c2cc(F)cc(F)c2Cl)cc(Br)c1=O [compound 14, 3-bromo-5-(2-chloro-3,5-difluorophenyl)-1-ethyl-6-(4-fluorophenyl)pyridin-2(1H)-one]
> 50%: all assays above

O=c1ccc(-c2cc(F)cc(F)c2Cl)c(-c2ccc(F)cc2)n1CC(F)F [compound 30, 5-(2-chloro-3,5-difluorophenyl)-1-(2,2-difluoroethyl)-6-(4-fluorophenyl)pyridin-2(1H)-one]
> 50%: all assays above

CCN1C(=O)CCC(c2cc(F)cc(F)c2Cl)=C1c1ccc(F)cc1 [compound 11, 5-(2-chloro-3,5-difluorophenyl)-1-ethyl-6-(4-fluorophenyl)-3,4-dihydropyridin-2(1H)-one]
> 50%: all assays above

CCn1c(-c2ccc(F)cc2)c(-c2cc(OC)ccc2Cl)ccc1=O [compound 33, 5-(2-chloro-5-methoxyphenyl)-1-ethyl-6-(4-fluorophenyl)pyridin-2(1H)-one]
> 50%: all assays above

CCn1c(-c2ccc(F)cc2)c(-c2cc(F)cc(F)c2Cl)cc(Cl)c1=O [compound 13, 3-chloro-5-(2-chloro-3,5-difluorophenyl)-1-ethyl-6-(4-fluorophenyl)pyridin-2(1H)-one]
> 50%: all assays above

CCn1c(-c2ccc(F)cc2)c(-c2cc(OC)ccc2Cl)cc(Cl)c1=O [compound 44, 3-Chloro-5-(2-chloro-5-methoxyphenyl)-1-ethyl-6-(4-fluorophenyl)pyridin-2(1H)-one]
> 50%: all assays above
